From patent publication US12145947B2, “Pyrimidine based modulators and uses thereof” (Quanta Therapeutics, Inc., priority 2022, dated 2024)

Columns and labels:
[1] = system: GP2D cells (KRAS G12D), phospho-ERK; assay: pERK In Cell Western (ICW) assay, GP2D cells; assay type: cell-based; details: Table 4, 3 hours
How it was run: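 GP2D (10,000 cells/well) and AGS (5,000 cells/well) cells were treated for 3 h at 37 °C with a 10-point, ½-log dilution series (top […]). They were then fixed and immunostained for phospho-ERK. pERK signal was normalised to DRAQ5 and expressed as % of DMSO, with IC50 from a 4-parameter fit.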

KRAS G12D/RAF1 = molecular target: T1, KRAS G12D/RAF1 (Homo sapiens, UniProt P01116, G12D); assay: Protein-protein interaction (PPI) HTRF assay KRAS G12D/RAF1; assay type: binding; details: Table 4
T1 construct: His6-MBP (N, cleaved yes); made in house; host or cells: E. coli
How it was run: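 Biotinylated human KRAS (1-169; wt, G12D, G12V) or wt NRAS, GppNHp-loaded, pre-incubated 30 min RT with compound and streptavidin-d2, then His-RAF1 RBD (52-131) with anti-6His Tb cryptate added for 1 h RT. HTRF 665/615 ratio normalized to no compound (0%) and untagged RAF1 (100%); IC50.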

T1 sequence (P01116 with tags, fused parts or gaps isoform P01116-2 G12D): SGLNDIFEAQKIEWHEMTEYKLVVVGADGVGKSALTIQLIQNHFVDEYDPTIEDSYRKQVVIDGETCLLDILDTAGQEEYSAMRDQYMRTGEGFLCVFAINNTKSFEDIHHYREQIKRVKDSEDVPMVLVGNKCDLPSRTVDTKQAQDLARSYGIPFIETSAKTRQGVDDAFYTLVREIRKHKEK

| Compound | IC50 [1] | IC50 (KRAS G12D/RAF1) |
| --- | --- | --- |
| CN(C)C(=O)c1nn2c(c1Cl)CN(c1nc(OC[C@@]34CCCN3C[C@H](F)C4)nc(N3CC4(CCc5sc(N)c(C#N)c54)C3)c1C#N)CC(F)(F)C2 [Compound 91, 5-[6-(2-amino-3-cyano-spiro[5,6-dihydrocyclopenta[b]thiophene-4,3′-azetidine]-1′-yl)-5-cyano-2-[[(2R,8S)-2-fluoro-1,2,3,5,6,7-hexahydropyrrolizin-8-yl]methoxy]pyrimidin-4-yl]-3-chloro-7,7-difluoro-N,N-dimethyl-6,8-dihydro-4H-pyrazolo[1,5-a][1,4]diazepine-2-carboxamide] | 10 to 100 nM | 100 to 1000 nM |
| N#Cc1c(N2C[C@H]3CC[C@@H](C2)N3)nc(OC[C@@H]2CCN2CC(F)(F)F)nc1N1CC2(CCc3sc(N)c(C#N)c32)C1 [Compound 92, 2-amino-1′-[5-cyano-6-[(1R,5S)-3,8-diazabicyclo[3.2.1]octan-3-yl]-2-[[(2S)-1-(2,2,2-trifluoroethyl)azetidin-2-yl]methoxy]pyrimidin-4-yl]spiro[5,6-dihydrocyclopenta[b]thiophene-4,3′-azetidine]-3-carbonitrile] | 1000 to 10000 nM | 10000 to 100000 nM |
| C=C1CN2CCCC2(COc2nc(N3CCCn4nc(C(=O)N(C)C)c(Cl)c4C3)c(C#N)c(N3CC4(CCc5sc(N)c(C#N)c54)C3)n2)C1 (stereo not shown) [Compound 93, 5-[6-(2-amino-3-cyano-spiro[5,6-dihydrocyclopenta[b]thiophene-4,3′-azetidine]-1′-yl)-5-cyano-2-[(6-methylene-2,3,5,7-tetrahydro-1H-pyrrolizin-8-yl)methoxy]pyrimidin-4-yl]-3-chloro-N,N-dimethyl-4,6,7,8-tetrahydropyrazolo[1,5-a][1,4]diazepine-2-carboxamide] | 1 to 10 nM | 100 to 1000 nM |
| C=C1CN2CCCC2(COc2nc(N3C[C@H]4CC[C@@H](C3)N4)c(C#N)c(N3CC4(CCc5sc(N)c(C#N)c54)C3)n2)C1 (stereo partly drawn) [Compound 94, 2-amino-1′-[5-cyano-2-[(6-methylene-2,3,5,7-tetrahydro-1H-pyrrolizin-8-yl)methoxy]-6-[(1R,5S)-3,8-diazabicyclo[3.2.1]octan-3-yl]pyrimidin-4-yl]spiro[5,6-dihydrocyclopenta[b]thiophene-4,3′-azetidine]-3-carbonitrile] | 1 to 10 nM | < 100 nM |
| CN(C)CC1(COc2nc(N3CCCn4nc(C(=O)N(C)C)c(Cl)c4C3)c(C#N)c(N3CC4(CCCc5sc(N)c(C#N)c54)C3)n2)CC1(F)F (stereo not shown) [Compound 96, 5-[6-(2-amino-3-cyano-spiro[6,7-dihydro-5H-benzothiophene-4,3′-azetidine]-1′-yl)-5-cyano-2-[[1-[(dimethylamino)methyl]-2,2-difluoro-cyclopropyl]methoxy]pyrimidin-4-yl]-3-chloro-N,N-dimethyl-4,6,7,8-tetrahydropyrazolo[1,5-a][1,4]diazepine-2-carboxamide] | 10 to 100 nM | 1000 to 10000 nM |
| Cn1nccc1COc1nc(N2C[C@H]3CC[C@@H](C2)N3)c(C#N)c(N2CC3(CCc4sc(N)c(C#N)c43)C2)n1 [Compound 97, 2-amino-1′-[5-cyano-2-[(2-methylpyrazol-3-yl)methoxy]-6-[(1R,5S)-3,8-diazabicyclo[3.2.1]octan-3-yl]pyrimidin-4-yl]spiro[5,6-dihydrocyclopenta[b]thiophene-4,3′-azetidine]-3-carbonitrile] | 100 to 1000 nM | 10000 to 100000 nM |
| N#Cc1c(N2C[C@H]3CC[C@@H](C2)N3)nc(OCC2(c3ccn[nH]3)CC2)nc1N1CC2(CCc3sc(N)c(C#N)c32)C1 [Compound 98, 2-amino-1′-[5-cyano-6-[(1R,5S)-3,8-diazabicyclo[3.2.1]octan-3-yl]-2-[[1-(1H-pyrazol-5-yl)cyclopropyl]methoxy]pyrimidin-4-yl]spiro[5,6-dihydrocyclopenta[b]thiophene-4,3′-azetidine]-3-carbonitrile] | 1000 to 10000 nM | 1000 to 10000 nM |
| N#Cc1c(N2C[C@H]3CC[C@@H](C2)N3)nc(OC[C@@]23CCCN2C[C@H](F)C3)nc1N1CC2(C1)c1c(sc(N)c1C#N)CC1CC12 (stereo partly drawn) [Compound 99, 2-amino-1′-[5-cyano-6-[(1R,5S)-3,8-diazabicyclo[3.2.1]octan-3-yl]-2-[[(2R,8S)-2-fluoro-1,2,3,5,6,7-hexahydropyrrolizin-8-yl]methoxy]pyrimidin-4-yl]spiro[4a,5,5a,6-tetrahydrocyclopropa[f]benzothiophene-4,3′-azetidine]-3-carbonitrile] | 1 to 10 nM | 100 to 1000 nM |
| N#Cc1c(N2C[C@H]3CC[C@@H](C2)N3)nc(OCC2(CN3CCOCC3)CC2)nc1N1CC2(C1)SCc1sc(N)c(C#N)c12 [Compound 100, 2-amino-1′-[5-cyano-6-[(1R,5S)-3,8-diazabicyclo[3.2.1]octan-3-yl]-2-[[1-(morpholinomethyl)cyclopropyl]methoxy]pyrimidin-4-yl]spiro[6H-thieno[2,3-c]thiophene-4,3′-azetidine]-3-carbonitrile] | 1 to 10 nM | < 100 nM |
| N#Cc1c(N2C[C@H]3CC[C@@H](C2)N3)nc(OCC2(CN3CCOCC3)CC2)nc1N1CC2(C1)c1c(sc(N)c1C#N)CC2F (stereo partly drawn) [Compound 101, 2-amino-1′-[5-cyano-6-[(1R,5S)-3,8-diazabicyclo[3.2.1]octan-3-yl]-2-[[1-(morpholinomethyl)cyclopropyl]methoxy]pyrimidin-4-yl]-5-fluoro-spiro[5,6-dihydrocyclopenta[b]thiophene-4,3′-azetidine]-3-carbonitrile] | 1 to 10 nM | 100 to 1000 nM |
| Cc1n[nH]nc1COc1nc(N2C[C@H]3CC[C@@H](C2)N3)c(C#N)c(N2CC3(CCc4sc(N)c(C#N)c43)C2)n1 [Compound 108] | 1000 to 10000 nM | 10000 to 100000 nM |
